Laboratory results published in patent US4520026A, “Indolizine derivatives and use as cardiovascular agents” (S. A. Labaz N.V., priority 1982, dated 1985).

Legend:
[1] = tested on: epinephrine-accelerated heart rate (anti-β effect); experiment: Antiadrenergic effect: anti-β effect (reduction of epinephrine-accelerated heart rate); format: in vivo; conditions: dog; for inhibition in vivo at 10 mg/kg: Canis lupus familiaris, iv
Description: (§1) The purpose of this test was to determine the capacity of the compounds under study to reduce epinephrine-increased blood-pressure (anti-α effect) and epinephrine-accelerated heart rate (anti-β effect) in the dog previously anaesthetized with pentobarbital and atropinized.
(§2) For each dog, the dose of epinephrine was first determined which provoked a reproductible increase by about 100 mm. Hg in the arterial pressure (between 5 and 10 μg/kg). After that, the dose of epinephrine so determined was administered followed by a dose by intravenous route of the compound to be studied. The percentage of reduction of the hypertension provoked by the compound under study in comparison with the hypertension previously obtained (about 100 mm. Hg) was then registered.
(§3) The percentage of reduction of the epinephrine-induced acceleration of heart-rate produced by the compound under study in comparison with the tachycardia previously measured (about 70 beats) was then registered. In both cases, the results were expressed as follows: […]
(§4) + for a <50%-reduction of the increase in pressure or cardiac frequency
(§5) ++ for a ≥50%-reduction of the increase in pressure or cardiac frequency
(§6) +++ for a subtotal reduction of the increase in pressure or cardiac frequency

[2] = tested on: epinephrine-increased blood-pressure (anti-α effect); experiment: Antiadrenergic effect: anti-α effect (reduction of epinephrine-increased blood-pressure); format: in vivo; conditions: dog; for inhibition in vivo at 10 mg/kg: Canis lupus familiaris, iv
Description: as §1, §2, §3, §4, §5, §6

[3] = tested on: blood-flow to the myocardium; experiment: Effect on blood-flow to the myocardium, anaesthetized dogs, intravenous; format: in vivo, dog
Description: It was undertaken on anaesthetized dogs which received the substance under study by intravenous route. The intensity of the maximum effect on blood-flow to the myocardium was expressed in percentage of the corresponding value before injection. The time required for the maximum effect to decrease by 50% represented the duration of the effect. This time was measured in minutes.

[4] = Canis lupus familiaris, iv, dose 10 mg/kg i.v., anaesthetized dog, read-out: Max. increase (blood-flow to the myocardium)
[5] = dose 10 mg/kg i.v., anaesthetized dog
[6] = Canis lupus familiaris, iv, dose 8 mg/kg i.v., anaesthetized dog, read-out: Max. increase (blood-flow to the myocardium)
[7] = dose 8 mg/kg i.v., anaesthetized dog

SMILES: CCCCc1oc2ccccc2c1C(=O)c1cc(I)c(OCCN(CC)CC)c(I)c1 [Amiodarone, reference compound]
- inhibition in vivo at 10 mg/kg ([1]; dose 10 mg/kg i.v.): > 50%
- inhibition in vivo at 10 mg/kg ([2]; dose 10 mg/kg i.v.): > 50%
- change in vivo at 10 mg/kg [3, 4]: 36%
- Coronarodilating effect / blood-flow to the myocardium, in words ([3]; comparative): cannot be regarded as a coronarodilator
- Time required to decrease to 50% (duration of effect) [3, 5]: 7 min

SMILES: CCCCN(CCCC)CCCOc1ccc(C(=O)c2c(CC)c(Br)c3ccccn23)cc1Br [Br/Br/H/C2H5/n-C4H9/3, 1-Bromo-2-ethyl-3-[4-(3-di-n-butylaminopropyl)-oxy-3-bromo-benzoyl]-indolizine]
- Anti-β effect ([1]; dose 10 mg/kg i.v.): +++
- Anti-α effect ([2]; dose 10 mg/kg i.v.): +++
- change in vivo at 10 mg/kg [3, 4]: 60%
- Time required to decrease to 50% (duration of effect) [3, 5]: 90 min

SMILES: CCCCN(CCCC)CCCOc1ccc(C(=O)c2c(CCC)c(Br)c3ccccn23)cc1Cl [Br/Cl/H/n-C3H7/n-C4H9/3, 1-Bromo-2-n-propyl-3-[4-(3-di-n-butylaminopropyl)-oxy-3-chloro-benzoyl]-indolizine]
- Anti-β effect ([1]; dose 10 mg/kg i.v.): +++
- Anti-α effect ([2]; dose 10 mg/kg i.v.): +++
- change in vivo at 2.5 mg/kg ([3]; Canis lupus familiaris, iv, dose 2.5 mg/kg i.v., anaesthetized dog, read-out: Max. increase (blood-flow to the myocardium)): 50%
- Time required to decrease to 50% (duration of effect) ([3]; dose 2.5 mg/kg i.v., anaesthetized dog): 60 min

SMILES: CCCCc1c(Br)c2ccccn2c1C(=O)c1ccc(OCCCN(CCC)CCC)c(Cl)c1 [Br/Cl/H/n-C4H9/n-C3H7/3, 1-Bromo-2-n-butyl-3-[4-(3-di-n-propylaminopropyl)-oxy-3-chloro-benzoyl]-indolizine]
- inhibition in vivo at 10 mg/kg ([1]; dose 10 mg/kg i.v.): < 50%
- inhibition in vivo at 10 mg/kg ([2]; dose 10 mg/kg i.v.): > 50%
- change in vivo at 10 mg/kg [3, 4]: 40%
- Time required to decrease to 50% (duration of effect) [3, 5]: 90 min

SMILES: CCCN(CCC)CCCOc1ccc(C(=O)c2c(CC)c(Cl)c3ccccn23)cc1Cl [Cl/Cl/H/C2H5/n-C3H7/3, 1-Chloro-2-ethyl-3-[4-(3-di-n-propylaminopropyl)-oxy-3-chloro-benzoyl]-indolizine]
- Anti-β effect ([1]; dose 3.3 mg/kg i.v.): +++
- Anti-α effect ([2]; dose 3.3 mg/kg i.v.): +++
- change in vivo at 3.3 mg/kg ([3]; Canis lupus familiaris, iv, dose 3.3 mg/kg i.v., anaesthetized dog, read-out: Max. increase (blood-flow to the myocardium)): 60%
- Time required to decrease to 50% (duration of effect) ([3]; dose 3.3 mg/kg i.v., anaesthetized dog): 25 min

SMILES: CCCN(CCC)CCCOc1ccc(C(=O)c2c(-c3cccc(Br)c3)c(Cl)c3ccccn23)cc1Cl [Cl/Cl/H/drawing 21/n-C3H7/3, 1-Chloro-2-(3-bromo-phenyl)-3-[4-(3-di-n-propylaminopropyl)-oxy-3-chloro-benzoyl]-indolizine]
- change in vivo at 8 mg/kg [3, 6]: 70%
- Time required to decrease to 50% (duration of effect) [3, 7]: 90 min

SMILES: CCCN(CCC)CCCOc1ccc(C(=O)c2c(-c3ccc(Cl)cc3)c(Cl)c3ccccn23)cc1 [Cl/H/H/drawing 22/n-C3H7/3]
- change in vivo at 5 mg/kg ([3]; Canis lupus familiaris, iv, dose 5 mg/kg i.v., anaesthetized dog, read-out: Max. increase (blood-flow to the myocardium)): 50%
- Time required to decrease to 50% (duration of effect) ([3]; dose 5 mg/kg i.v., anaesthetized dog): 40 min

SMILES: CCCCN(CCCC)CCCOc1ccc(C(=O)c2c(-c3ccc(Br)cc3)cc3ccccn23)cc1Br [H/Br/H/drawing 13/n-C4H9/3]
- change in vivo at 10 mg/kg [3, 4]: 90%
- Time required to decrease to 50% (duration of effect) [3, 5]: 25 min

SMILES: CCCCN(CCCC)CCCOc1ccc(C(=O)c2c(CCC)cc3ccccn23)cc1Br [H/Br/H/n-C3H7/n-C4H9/3, 2-n-Propyl-3-[4-(3-di-n-butylaminopropyl)-oxy-3-bromo-benzoyl]-indolizine]
- change in vivo at 2 mg/kg ([3]; Canis lupus familiaris, iv, dose 2 mg/kg i.v., anaesthetized dog, read-out: Max. increase (blood-flow to the myocardium)): 120%
- Time required to decrease to 50% (duration of effect) ([3]; dose 2 mg/kg i.v., anaesthetized dog): 25 min

SMILES: CCCCN(CCCC)CCCOc1c(Cl)cc(C(=O)c2c(-c3ccc(Br)cc3)cc3ccccn23)cc1Cl [H/Cl/Cl/drawing 14/n-C4H9/3]
- change in vivo at 10 mg/kg [3, 4]: 45%
- Time required to decrease to 50% (duration of effect) [3, 5]: 15 min

SMILES: CCCCN(CCCC)CCCOc1ccc(C(=O)c2c(-c3cccc(Br)c3)cc3ccccn23)cc1Cl [H/Cl/H/drawing 15/n-C4H9/3]
- change in vivo at 10 mg/kg [3, 4]: 30%
- Time required to decrease to 50% (duration of effect) [3, 5]: 45 min

SMILES: CCCN(CCC)CCCOc1ccc(C(=O)c2c(-c3cccc(Br)c3)cc3ccccn23)cc1Cl [H/Cl/H/drawing 16/n-C3H7/3]
- change in vivo at 8 mg/kg [3, 6]: 45%
- Time required to decrease to 50% (duration of effect) [3, 7]: 25 min

SMILES: CCCCN(CCCC)CCCOc1ccc(C(=O)c2c(-c3ccc(Br)cc3)cc3ccccn23)cc1Cl [H/Cl/H/drawing 20/n-C4H9/3]
- change in vivo at 10 mg/kg [3, 4]: 60%
- Time required to decrease to 50% (duration of effect) [3, 5]: 25 min
